In a melting point compilation (Tetko et al.; mined from patent text by program, amines drawn as free bases though some values may be those of a salt):

| Structure (SMILES) | melting point |
| --- | --- |
| COc1ccc(C(=O)O)c2cc(C3CCCC3)oc12 | 170 to 171 °C |
| CCOP(=O)(CNC(C)(c1ccccc1)c1cc(C(C)(C)C)c(O)c(C(C)(C)C)c1)OCC (stereo not given) | 104 to 105 °C |
| Nc1cc(-n2cc(C(=O)O)c(=O)c3cc(F)c(NCCO)c(Cl)c32)c(F)cc1F | 215 to 219 °C |
| CS(=O)(=O)N1CCC(N)CC1 | 65.3 to 65.7 °C |
| CC(=O)Nn1c(=O)c(=O)[nH]c2ccccc21 | 211 to 213 °C |
| CCCCCCCCCCCC(CCCCC(=O)N(c1ccccc1)c1ccccc1)OC (stereo not given) | 51 to 52 °C |
| CCC(COC)NC(=O)C(Cc1ccc(OCc2ccccc2)cc1)NC(=O)C(CC(C)C)N(C)Cc1ccc(C(C)(C)C)cc1 (stereo not given) | 118 to 120 °C |
| Cc1cc(Nc2ccnc(Nc3ccc(S(=O)(=O)N(C)C4CCN(Cc5nccs5)CC4)cc3)n2)ccc1F | 176 to 177 °C |
| O=C(NCC(=O)c1cccs1)c1ccc(Cl)cc1 | 157 to 159 °C |
| CC(CC(O)(C(=O)Nc1ccc2c(c1)COC2=O)C(F)(F)F)c1ccccc1 (stereo not given) | 166 to 168 °C |
| COc1cc(OC)c2nccc(O)c2c1 | 221 to 224 °C |
| CCc1cc2c(Sc3nnc(C)s3)ncnc2s1 | 132 to 135 °C |
| Cn1c(NCCOS(C)(=O)=O)cc(=O)n(C)c1=O | 169 to 170 °C |
| COC(=O)c1ccc2c(c1)N(C(=O)c1ccc(C3CCCCC3)cc1)Cc1cccn1C2 | 174 to 176 °C |
| Cn1ncc(C(=O)NN)c1S(N)(=O)=O | 172 to 173 °C |
| O=C(O)C1=Cc2c(ccc3occ(-c4ccc(Br)cc4)c23)OC1C(F)(F)F (stereo not given) | > 250 °C |
| O=C(CCl)Nc1nc2cc3nc(NC(=O)CCl)sc3cc2s1 | 330 °C |
| NC(=O)c1cccc(OCCCCC/C=C\c2ccsc2)c1 | 71 to 73 °C |
| COc1ccc(N=C(C#Cc2ccccc2OC)N2CCN(Cc3ccc(C)cc3)CC2)cc1 | 83 °C |
| COC(=O)CCC1OC(=O)C(O)=C1c1ccccc1 (stereo not given) | 135 to 136 °C |
| CC(C)(C)OC(=O)c1ccc(C(=O)NS(=O)(=O)c2ccc(Cl)cc2)cc1 | > 300 °C |
| CCc1cc(CC)c(-c2c(OCS(C)(=O)=O)c(C)nn(C)c2=O)c(CC)c1 | 142 to 143 °C |
| O=[N+]([O-])c1cn2c(n1)OC(COc1ccc(-c3csc(Cc4ccc(OC(F)(F)F)cc4)n3)cc1)CC2 (stereo not given) | 222 to 224 °C |
| CCOC(=O)c1c(C(F)(F)F)cc(C(F)(F)F)nc1N | 84 to 86 °C |
| CCCc1c(Br)c2ccc(C(N)=O)cc2n1Cc1ccccc1Br | 122 to 125 °C |

| Structure (SMILES) | melting point |
| --- | --- |
| C#Cc1cc(Cl)cc(Cl)c1 | 80 to 81.5 °C |
| CCn1cc(C(=O)O)c(=O)c2cc(F)c(N3CCNCC3)c(F)c21 | 234 to 236 °C |
| CN1CCC(=C2c3ccccc3COc3ccc(C(=O)O)cc32)CC1 | 205 to 210 °C |
| CCOc1nn(-c2ccc(C(F)(F)F)cn2)cc1CCCOc1cccc(CC(=O)O)c1F | 120 to 121 °C |
| CC(=O)OCCCOc1ccc([N+](=O)[O-])c(C=C2NC(=O)NC2=O)c1 | 94 to 130 °C |
| CC(C)(C=O)NC(=O)OC(C)(C)C | 84 to 85 °C |
| CCOC(=O)c1c(Cn2cncn2)nc2sc3ncccc3c2c1-c1ccc(OC)c(OC)c1 | 180 to 182 °C |
| O=C1NCC2=C1c1ccc(Cl)cc1C(c1ccccc1Cl)=NC2 | 195 to 197 °C |
| Cn1c(=O)c2c(Br)cccc2n2cnc(-c3nc(C4CC4)no3)c12 | 246 to 247 °C |
| O=C(O)c1cn(-c2ccc(F)cc2)c(-c2ccc(N=Cc3ccc([N+](=O)[O-])o3)cc2)cc1=O | 129 to 131 °C |
| CC(C)CC(NC(=O)c1ccc(F)cc1SSc1cc(F)ccc1C(=O)NC(CC(C)C)C(=O)O)C(=O)O (stereo not given) | 261 to 262 °C |
| CC(C)(COc1ccc(Cl)cc1)C(=O)C(Oc1ccc(Cl)cc1)n1cncn1 (stereo not given) | 206 to 208 °C |
| COC(=O)c1ccccc1S(=O)(=O)NC(=O)Nc1nc(C)cc(OC)n1 | 173 to 179 °C |
| FC(F)(F)c1cccc(N2CCN(Cc3ccc(-c4ccccc4)o3)CC2)c1 | 56 °C |
| COC(=O)C1=C(CF)NC(C)=C(C(=O)OC(C)C)C1c1c(F)cccc1C(F)(F)F (stereo not given) | 82 to 84 °C |
| CCCCCCCCCCCCSCCCc1cc(C(C)(C)C)c(O)c(C(C)(C)C)c1 | 26 to 27 °C |
| COCc1c(NC2CC2)c([N+](=O)[O-])cc(F)c1N1CCN(C)CC1 | 89 to 90 °C |
| O=S(=O)(c1ccccc1)N1CCN(C(c2ccccc2)c2ccc(Cl)cc2)CC1 (single isomer, unassigned; (-)) | 116 to 118 °C |
| CC(O)c1cccc(Oc2ncccc2OCCCc2ccncc2)c1 (stereo not given) | 93 to 97 °C |
| N#Cc1nn(-c2c(Cl)cc(C(F)(F)F)cc2Cl)c(Cl)c1C=O | 145 to 146 °C |
| COc1ccc(-c2nn(Cc3ccccc3)c(=O)cc2-c2ccc(Cl)cc2)cc1 | 165 to 167 °C |
| COc1cc(CO)ccc1OCc1nc(-c2cccnc2)oc1C | 117 to 118 °C |
| O=C1CCCc2ccc(=O)[nH]c21 | 253 °C |
| CCOC(=O)c1cc(NC(=O)C2=C(CC)OCCS2)ccc1Cl | 86 to 88 °C |
| c1ccc(-c2ccc3nc(-c4ccccc4)oc3n2)cc1 | 151 to 152 °C |

| Structure (SMILES) | melting point |
| --- | --- |
| CC(=O)OC1C(Oc2cccc(O)c2C(=O)CCc2ccc3occc3c2)OC(CO)C(O)C1O (stereo not given) | 152 to 156 °C |
| CCCCCCCCc1ccc(-c2ccc(COc3ccc(OCC(C)OC(=O)OCCCC)cc3)cc2)cc1 (stereo not given) | 94 °C |
| Cc1cccc2c1N(CCN(C(C)C)C(C)C)C(=O)C2=O | 92 to 93 °C |
| CC1(C)Oc2ccc(C#N)cc2C(NC(=O)Nc2cccc(-c3ncco3)c2)C1O (stereo not given) | 130 to 135 °C |
| CC(C#Cc1ccc(Oc2cncc(Cl)c2)o1)N(O)C(N)=O (stereo not given) | 150 °C |
| O=S(=O)(CC(F)(F)F)c1nc2cc(Cl)ccc2[nH]1 | 161 to 164 °C |
| C/C(=C\C(=O)Nc1ccccc1C(=O)O)c1ccc(OC(F)F)c(OC(F)F)c1 | 170 to 173 °C |
| CC(C)CC(C(=O)O)c1ccc(-c2ccc(C(F)(F)F)cc2)c(OCC2CC2)c1 (stereo not given) | 142 to 143 °C |
| CC(C#CC1=C(C)C(O)C(O)CC1(C)C)=CCO (stereo not given) | 115 to 117 °C |
| COC(=O)C(Cc1ccccc1)NC(=O)C(CC(=O)O)NC(=O)C(N)C(C)C(=O)O (stereo not given) | 172 to 175 °C |
| COc1ccc(-c2ccc(C#N)cc2)nc1 | 93 to 95 °C |
| Cc1ccc(S(=O)(=O)CC(=O)NN=C2C(=O)Nc3ccc(I)cc32)cc1 | 257 °C |
| CC(=O)N[C@@H]1CCCC[C@H]1Nc1nc(Nc2ccc3c(c2)C(C)(C)CCC(=O)N3)ncc1Cl | 227 °C |
| O=c1[nH]c2ccccc2n1CCCN1CCN(C(c2ccc(F)cc2)c2ccc(F)cc2)CC1 | 197 °C |
| COc1ccc2cccc(N)c2c1 | 134 to 136 °C |
| Nc1cc(CS(=O)(=O)CCO)ccc1CS(=O)(=O)CCO | 196 to 198 °C |
| CC(C)(NCCCn1ccnc1)c1ccc(-c2ccc(O)cc2)cc1 | 178 to 180 °C |
| CC(=NOCCOc1ccc(C[C@H](Oc2ccc(C(C)(C)C)cc2)C(=O)O)cc1)c1ccc(-c2ccccc2)cc1 | 141 to 143 °C |
| N#CCc1ccc(NS(=O)(=O)c2ccc(N3CCNC3=O)cc2)cc1 | 204 to 206 °C |
| O=C(CCl)Nc1nc(C(Cl)(Cl)Cl)ns1 | 146 °C |
| Cc1c(C(=O)O)cnn1-c1ccc(I)cc1 | 225 °C |
| CN(C)CC#Cc1ccc2c(Nc3ccc(Cl)cc3Cl)c(C#N)cnc2c1 | 144 to 145 °C |
| CC(C)(C)NC(=O)NCC#CCNC(=O)Nc1nc2c(s1)-c1c(cnn1-c1ccccc1)CC2 | 196 °C |
| COC(=O)N(C(=O)CC(O)(Cn1cncn1)c1ccc(Cl)cc1Cl)C(=O)OC (stereo not given) | 155 to 156 °C |
| CC(C#N)c1cccc(C(=O)c2cc3sccc3s2)c1 (stereo not given) | 75 °C |

| Structure (SMILES) | melting point |
| --- | --- |
| O=[N+]([O-])c1cnn2c(-c3ccccc3)nc3ccccc3c12 | 187 to 188 °C |
| CCc1c(OC)c(C)c(OC)c2c1C(=O)N(CSc1nnnn1-c1ccccc1)S2(=O)=O | 44 to 46 °C |
| O=[N+]([O-])c1ccc(-c2cc3c(O)ncnc3o2)cc1 | > 350 °C |
| CS(=O)(=O)N[C@@H]1CCCC[C@H]1Nc1nc(Nc2ccc3c(c2)CNCCS3)ncc1Cl | 141 to 143 °C |
| CCCC(=O)c1cnc2c(OC)cccc2c1Nc1cccc(CO)c1C | 186 to 188 °C |
| O=C(c1ccc(F)c(F)c1)N1CCC[C@H](c2nc(-c3cscn3)no2)C1 | 107 to 109 °C |
| CC(C)[C@H]1CC[C@H](C(=O)COS(=O)(=O)c2ccccc2)CC1 | 48 to 49 °C |
| CC(C)CN1CCCC1CNC(=O)c1cc(S(N)(=O)=O)cc2c1OC(C)C2 (stereo not given) | 182 to 184 °C |
| O=c1c2ccccc2c(Cc2ccc(F)cc2)nn1N1CCNCC1 | 157 to 159 °C |
| CCS(=O)c1ccc(-c2coc3ccc(-c4nnc(C)o4)cc23)cc1F (stereo not given) | 187 to 188 °C |
| Cc1cc(NC(=O)C(CS)Cc2ccccc2)c(C)c(C(=O)O)c1 (stereo not given) | 180 to 182 °C |
| Cn1c(N)c(C#N)c(Cl)c1C=O | 282 to 285 °C |
| CCCCCC1=NN(C(=O)NC2C3CC4CC(C3)CC2C4)CC1c1ccccc1 (stereo not given) | 71 °C |
| CCS(=O)c1nsc(NC(=O)N(C)C)c1C#N (stereo not given) | 162 to 163 °C |
| CCCCn1c(=O)c2nn(S(=O)(=O)CCCCl)cc2n(CCCC)c1=O | 67 to 68 °C |
| CC(C)(C)c1cc(CCc2ccccc2NC(=O)N2CCN(Cc3ccc4c(c3)OCO4)CC2)cc(C(C)(C)C)c1O | 149 to 151 °C |
| CCc1c(-c2ccccc2)nn(C)c1-c1ccccc1 | 80 to 81 °C |
| S=C(Cc1ccccc1)N1CCOCC1 | 115 to 116 °C |
| Cc1[nH]c(=O)c2c(ccc3nc(Nc4c(Cl)cccc4Cl)[nH]c32)c1C | > 300 °C |
| Nc1cc(Cl)cc(Cl)c1C(=O)NCc1ccccc1Br | 163 to 167 °C |
| CCCC(=O)Nc1n[nH]c2cc(Cl)ccc12 | 230 °C |
| COC(=O)[C@H](CO)NC(=O)c1ncn2c1CN(C)C(=O)c1c(Cl)cccc1-2 | 178 to 180 °C |
| CCc1cc(C(=O)O)c(Nc2ccc(F)cc2[N+](=O)[O-])s1 | 198 to 200 °C |
| COc1ccc2ncc([N+](=O)[O-])c(Cl)c2c1 | 281 to 283 °C |
| CCSc1ccc(Cl)c(OS(C)(=O)=O)n1 | 40 to 41 °C |
